Test [1] relates to Human umbilical vein endothelial cells (HUVECs), normal quiescent type endothelial cells. As to the kind of experiment: Proliferation assay, quiescent endothelium (Norm). Type of test: cell-based. Particulars: HUVEC, given as ranges. How it is done: (§1) Proliferation Assay—quiescent endothelium: Human umbilical vein endothelial cells (CC-2519, Clonetics) were plated at 15000 cells/well in EBM2 (CC-3156, Clonetics)+0.5% FBS (CC-4101A, Clonetics)+GA-1000 (CC-4381A, Clonetics) in a 96 well plate in triplicate. Cells were cultured overnight at 37° C. 5% CO2. Medium was subsequently replaced with fresh medium including the compound or negative control. Cells were cultured for a period of 48 hrs. An MTT assay was performed to measure changes in cell numbers. Briefly, 20 μl of MTT reagent was added to cells containing 100 μl of EBM2+0.5% FBS and incubated at 37° C. for 2 hours. Absorbance was measured at 492 nm.

The subject of test [2] is Human umbilical vein endothelial cells (HUVECs), tumour type activated endothelial cells. As to the kind of experiment: Proliferation assay, activated endothelium (Tum). In kind it is cell-based. Particulars: HUVEC, given as ranges. How it is done: (§2) Proliferation Assay—activated endothelium: Human umbilical vein endothelial cells (CC-2519, Clonetics) were plated at 2500 cells/well in EGM2 (CC-3162, Clonetics) in a 96 well plate in triplicate. Cells were cultured overnight at 37° C. 5% CO2. Medium was subsequently replaced with fresh medium including the compound or negative control. Cells were cultured for a period of 48 hrs. An MTT assay was performed to measure changes in cell numbers. Briefly, 20 μl of MTT reagent was added to cells containing 100 μl of EGM2 and incubated at 37° C. for 2 hours. Absorbance was measured at 492 nm.

The test system of the next test is MCF-7. As to the kind of experiment: Growth inhibition (SRB or cell counting), MCF-7. Particulars: Homo sapiens, MCF7, concentration required to inhibit net cell growth by 50%, read-out: Cancer cell line: IC50. In kind it is cell-based.
In test [3] the test system is MDA-MB-231 solid orthotopic tumors. The experiment in a line: Tumor growth inhibition, MDA-MB-231 orthotopic tumors. In kind it is in vivo, Balb/c nu/nu mice. Particulars: 40 mg/kg i.v., two cycles, up to 72 days; vs vehicle p<0.001 from day 4 to Day 70. An excerpt: Animals were i.v. dosed with a total of two cycles of Example 2 treatment. Each cycle was dosing on […] followed by a three week no-dosing period. Tumor growth represented as a ratio to initial tumor volume is shown over a total of 72-days.
Tumor growth as well as animal health were monitored for up to 72 days post-day 1 of treatment. […] Significant differences in tumor growth between Example 2 treated (n=64) and vehicle treated (n=20) animals were observed as early as day 4 (p<0.001; unpaired t-test; Prism® analysis) through to Day 70.

A further test relates to Caki-1 xenograft tumors. The experiment in a line: Immunohistochemistry analysis of Caki-1 renal xenografts. In kind it is in vivo, BALB/c nu/nu mice. Particulars: single i.v. 32 mg/kg. The source says:
These effects result in some reduction of tumor growth in animal models. Tumor recovery from the vascular damage caused by VDA action occurs within 48 hrs post-treatment. Furthermore, vascular disruption spares the outer cellular rim of a tumor mass that appears to be supported by normal vessels that surround the tumor capsule and remain unaffected by VDA action. It is reasonable to hypothesise that his viable rim subsequently supports tumor revascularisation and recovery from the action of the VDA agent. We hypothesised that the recovery of the tumors from the effects of the VDA action is driven by molecular pathways that support cancer cell survival and induction of angiogenesis. We undertook a number of histological analyses to assess the damage caused by Example 2 on the integrity of components of the tumor microenvironment and obtain information of upregulation of proteins that are likely to be involved in tumor recovery. Our analyses included evaluation of the expression of VEGF, phosphorylated mTOR, Hypoxia inducible factor-1-alpha (Hif-1α), and Hypoxia inducible factor-2-alpha (Hif-2α), the level of apoptosis, integrity of endothelial cells and the basement membrane protein laminin.
Female BALB/c nu/nu mice at 6 to 8 weeks were injected s.c. with the human cancer cell line Caki-1 representing renal cancer. Cells were resuspended in Dulbecco's PBS (Sigma-Aldrich) and 5×10^6 cells were injected s.c. Tumors were grown to an average size of 700 mm^3 prior to treatment. Example 2 treatment consisted of a single i.v. injection at dose level of 32 mg/kg. Saline treatment was included as a vehicle control. Animals were euthanized and tumors were excised for histologic examination 24 hours post dosing. Cryosections of tumors were prepared and probed with phosphorylated mTOR (ser 2448), Hif-1α, Hif-2α and CD31 specific antibodies. Antibody staining was visualized using 3,3′-Diaminobenzidine (brown staining) and sections were conterstained with Myers hematoxylin.

The next test has as its system MDA-MB-231. As to the kind of experiment: Growth inhibition (SRB or cell counting), MDA-MB-231. In kind it is cell-based. Particulars: Homo sapiens; MDA-MB-231 (footnote b); given as ranges; read-out: Cancer cell line: IC50.
Test [4] has as its system tumor endothelial cells (activated) and normal endothelial cells (quiescent). The experiment in a line: Selectivity between activated and quiescent endothelial cells. In kind it is cell-based. How it is done:
as §1, §2

The mark [5] stands for this setting: around the viable rim region, 24 hours.

Regarding `COc1cc(C(=O)c2c(CN(C)C)oc3c(O)c(OC)ccc23)cc(OC)c1OC` [Example 34], the IC50 in test [1] and in test [2] was 1 to 10 nM each time.
Turning to `COc1ccc(/C=C\c2cc(OC)c(OC)c(OC)c2)cc1OP(=O)(O)O` [Example 4], the IC50 in test [1] was 1 to 10 nM; in test [2], 1 to 10 nM; in the test with MCF-7, 5 nM.
With `CCc1oc2c(O)c(OC)ccc2c1C(=O)c1cc(OC)c(OC)c(OC)c1` [Example 33], the IC50 in test [1] and in test [2] was 0.1 to 1 nM in each case.
For `COc1cc(C(=O)c2c(C)oc3c(OP(=O)([O-])[O-])c(OC)ccc23)cc(OC)c1OC.[Na+].[Na+]` [Example 2, Disodium 6-methoxy-2-methyl-3-(3,4,5-trimethoxybenzoyl)benzofuran-7-yl phosphate], the “Tumor growth (ratio to initial tumor volume)” value in test [3] is given as “tumor growth inhibition”. In the test with Caki-1 xenograft tumors (24-30 hrs after treatment), the “Number of apoptotic cells within the tumor” value is listed as “significant increase in the number of apoptotic cells”, the “Staining of laminin (basement membrane integrity)” value is “considerable reduction in the staining”, the “Staining with anti-human VEGF antibody” value is on record as “dramatic increase in staining” and the “Staining with endothelial cell marker CD31” value is given as “decrease in staining”. In the test on Caki-1 xenograft tumors (setting [5]), the “Expression of Hif-1α” value is “Increased expression”, the “Expression of Hif-2α” value is “Increased expression” and the “Expression of phosphorylated mTOR (ser 2448)” value is listed as “Increased expression”.
Take `CNc1oc2c(O)c(OC)ccc2c1C(=O)c1cc(OC)c(OC)c(OC)c1` [Example 10]: the IC50 in test [1] was 0.1 to 1 nM; in test [2], 1 to 10 nM; with MCF-7, 3.5 nM.
Take `COc1cc(C(=O)c2c(C#N)oc3c(O)c(OC)ccc23)cc(OC)c1OC` [Example 23]: the concentration for half-maximal inhibition (IC50) is 1 to 10 nM in test [1], 1 to 10 nM in test [2] and 0.1 to 1 nM with MDA-MB-231.
For the molecule `COc1cc(C(=O)c2c(N)oc3c(O)c(OC)ccc23)cc(OC)c1OC` [Example 25], the IC50 in test [1] lay in the range of 1 to 10 nM; in test [2] it was 1 to 10 nM; with MDA-MB-231 it was 0.1 to 1 nM.
Consider `COc1cc(C(=O)c2c(C)sc3c(O)c(OC)ccc23)cc(OC)c1OC` [Example 42], for which the IC50 in test [1] was in the range of 1 to 10 nM; in test [2] it was 0.1 to 1 nM.
Regarding `COc1ccc(/C=C\c2cc(OC)c(OC)c(OC)c2)cc1O` [Combretastatin A4], the “Selectivity activated vs quiescent endothelial cells” value in test [4] is “equally potent against quiescent and activated endothelial cells”.
Turning to `CCCCc1oc2c(O)c(OC)ccc2c1C(=O)c1cc(OC)c(OC)c(OC)c1` [Example 32], the IC50 in test [1] and in test [2] was 1 to 10 nM each time.
For `COc1ccc2c(C(=O)c3cc(OC)c(OC)c(OC)c3)coc2c1` [Example 5], the IC50 in test [1] is 10 to 100 nM; in test [2], 10 to 100 nM; in the test on MCF-7, 55 nM.
`COc1cc(C(=O)c2c(C)[nH]c3c(O)c(OC)ccc23)cc(OC)c1OC` [Example 39]: the IC50 was 0.1 to 1 nM in test [1] and 0.01 to 0.1 nM in test [2].
Taken in the same sequence, the figures for `COc1ccc2c(C(=O)c3cc(OC)c(OC)c(OC)c3)c(C)sc2c1` [Example 41] were 1 to 10 nM and 1 to 10 nM.
With `COc1cc(C(=O)c2coc3c(N)c(OC)ccc23)cc(OC)c1OC` [Example 19], the IC50 (in test [1]; in test [2]; in the test on MDA-MB-231) was 1 to 10 nM in each case.
Regarding `C#Cc1oc2c(O)c(OC)ccc2c1C(=O)c1cc(OC)c(OC)c(OC)c1` [Example 12], the half-maximal inhibitory concentration (IC50) in test [1] is 1 to 10 nM; in test [2] it was 1 to 10 nM; with MCF-7 it was 3.3 nM.
For `COc1cc(C(=O)c2c(NCCS(N)(=O)=O)oc3c(O)c(OC)ccc23)cc(OC)c1OC` [Example 45], the concentration for half-maximal inhibition (IC50) in test [1] and in test [2] was 1 to 10 nM throughout.

Usually IC50 stands for the concentration that inhibits the measured activity by half.

(Values after patent US9006284B2, “Combination therapy for treating proliferative diseases” (Bionomics Limited, priority 2009, dated 2015).)
